{"source": "patent US20190106460A1", "about": "“BINDING INHIBITORS OF THE BETA. TRANSDUCIN REPEAT-CONTAINING PROTEIN” (priority 2011, published 2019)", "test_system": "β-catenin in MCF7 cells", "test": "β-Catenin in cell western", "assay_type": "cell-based", "experimental": "β-Catenin in Cell Western\nPlating of the MCF7 cells onto 96 well plates—this step is carried out 1 day before the treatment of the cells to allow the cells to adhere well to the tissue culture plastic. MCF7 cells to be used for seeding should be less than 100% confluent in a 10 cm dish. Add 3 ml of RT trypsin/EDTA to the cells. Incubate at 37° C./5% CO2 for a few minutes until the cells easily come away from the plastic by gentle swirling. Add 7 ml of media to the cells. Wash the bottom of the plate gently with the 10 ml to ensure all cells are captured and dispense into a 15 ml falcon. Add 1001l of the cells to 1001l of Trypan blue and add to haemocytometer to count the number of cells present. Make up approx 10 ml of cells in media at 2×10^4 cells/1001l (well) with fresh media. Add this correct seeding density to a 10 cm dish. Dispense 1001l of cells/well into a 96 well plate without using the outside wells. Incubate at 37° C./5% CO2 overnight\nTreatment of MCF7 cells with compound of interest (COI) and controls—Put OptiMEM into 37° C. water bath to warm. Add 4 ul of 50 mM compound X for testing to eppendorf—this is tube 1. Add 2 al DMSO to 6 tubes marked tube 2-7. Take 21 al of 50 mM (COI) and add to 2 al of DMSO in tube 2 and pipette up and down to mix. Take 21 al from tube 2 and add to 2 μl DMSO in next tube and mix. […]", "note": "Non-standard residues stand in square brackets, D forms with d. Residues, ends and D or L forms follow the SMILES beside them. Groups on a side chain read outwards from the residue. *: point of attachment. X3 = CC(C)CCC[C@@H](C)[C@H]1CCC2C3CC=C4C[C@@H](OC(=O)*)CC[C@]4(C)C3CC[C@@]21C; Benzenesulfonyl(4-OMe) = COc1ccc(S(=O)(=O)*)cc1; Phe(3-F) = N[C@@H](Cc1cccc(F)c1)C(=O)O; Ahx = NCCCCCC(=O)O"}
{"compound": "COc1ccc(S(=O)(=O)N[C@H](CC(=O)O)C(=O)N[C@@H](CCC(=O)O)C(=O)NCC(=O)N[C@@H](Cc2cccc(F)c2)C(=O)N[C@@H](Cc2c[nH]c3ccccc23)C(=O)N[C@@H](CCC(=O)O)C(=O)NCCCCCC(=O)N[C@@H](CCCCNC(=O)CCCCCNC(=O)O[C@H]2CC[C@@]3(C)C(=CCC4C3CC[C@@]3(C)C4CC[C@@H]3[C@H](C)CCCC(C)C)C2)C(N)=O)cc1", "note": "(stereo partly shown) [UBP036, 4-(MeO)PhSO2-dEGF(3F)WE-Ahx-K(Ahx-Chol)-NH2] ({Benzenesulfonyl(4-OMe)}-[dD]EG[Phe(3-F)]WE[Ahx]K([Ahx-X3])-NH2)", "values": [{"measurement": "accumulation of β-catenin, in cell western", "result": "accumulation of β-catenin"}]}
